Biological target: Rv2624c (Mycobacterium tuberculosis, UniProt P9WFD5)
Sequence (P9WFD5 whole entry): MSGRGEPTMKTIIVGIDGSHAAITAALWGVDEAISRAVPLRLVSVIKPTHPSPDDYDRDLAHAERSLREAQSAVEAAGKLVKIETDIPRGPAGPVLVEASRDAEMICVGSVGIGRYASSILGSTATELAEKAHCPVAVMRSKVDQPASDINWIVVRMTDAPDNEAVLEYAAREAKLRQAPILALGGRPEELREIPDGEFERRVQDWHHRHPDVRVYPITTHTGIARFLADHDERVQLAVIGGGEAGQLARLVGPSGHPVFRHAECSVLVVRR

SMILES	HPLC of nucleotides extracted by boiling purified protein
Nc1ncnc2c1ncn2[C@@H]1O[C@H](COP(=O)(O)OP(=O)(O)O)[C@@H](O)[C@H]1O [ADP]	purified Rv2624c proteins from E. coli bound tightly to ATP and ADP after extensive purification steps
Nc1ncnc2c1ncn2[C@@H]1O[C@H](COP(=O)(O)OP(=O)(O)OP(=O)(O)O)[C@@H](O)[C@H]1O [ATP]	purified Rv2624c proteins from E. coli bound tightly to ATP and ADP after extensive purification steps

— publication PMC5071874, “Universal stress protein Rv2624c alters abundance of arginine and enhances intracellular survival by ATP binding in mycobacteria” (Scientific Reports, 2016)
